Data published in ChEMBL document CHEMBL4414576, “Recent advancements in mechanistic studies and structure activity relationship of FoF1 ATP synthase inhibitor as antimicrobial agent” (Eur J Med Chem, 2019).
≈ marks a conversion by molar mass, not a printed value. Starred links: 1 amine or outer side, 2 acyl side, 3 side chain; linkers in the order of their positions; H or OH if unused. Non-standard residues stand in square brackets, D forms with d. Residues, ends and D or L forms follow the SMILES beside them. *: point of attachment. X2 = CCC(=O)C[C@@H](O)CC(C)C[C@H](N[*:1])C(=O)[*:2]; Leu(3R-OH) = CC(C)[C@@H](O)[C@H](N)C(=O)O; NH((S)CH(Me)CH2NMe2) = C[C@@H](CN(C)C)N*; Pro(4S-Me) = C[C@@H]1CN[C@H](C(=O)O)C1; X1 = CC[C@@H](C)/C=C/C(=O)*; Aib = CC(C)(N)C(=O)O; βAla = NCCC(=O)O

Key:
Format in all cases: functional
[1] = system: Staphylococcus aureus; assay: Antimicrobial activity against Staphylococcus aureus
[2] = system: Bacillus subtilis; assay: Antimicrobial activity against Bacillus subtilis
[3] = system: Streptococcus pyogenes; assay: Antimicrobial activity against Streptococcus pyogenes
[4] = system: Enterococcus faecalis; assay: Antimicrobial activity against Streptococcus faecalis
[5] = system: Micrococcus luteus; assay: Antimicrobial activity against Sarcina lutea
[6] = system: Microbacterium; assay: Antimicrobial activity against Microbacterium species
[7] = system: Candida; assay: Antifungal activity against Candida
[8] = Antifungal activity against Cryptococcus
[9] = system: Sporotrichum; assay: Antifungal activity against Sporotrichum
[10] = system: Trichophyton; assay: Antifungal activity against Trichophyton
[11] = system: Microsporum; assay: Antifungal activity against Microsporum
[12] = system: Streptococcus pneumoniae; assay: Antimicrobial activity against Streptococcus pneumoniae

| MIC [1] [µg/mL] | MIC [2] [µg/mL] | MIC [3] [µg/mL] | MIC [4] [µg/mL] | MIC [5] [µg/mL] | MIC [6] [µg/mL] | MIC [7] [µg/mL] | MIC [8] [µg/mL] | MIC [9] [µg/mL] | MIC [10] [µg/mL] | MIC [11] [µg/mL] | MIC [12] [µg/mL] | Structure (SMILES) |
| --- | --- | --- | --- | --- | --- | --- | --- | --- | --- | --- | --- | --- |
| 2.52 to 50 (≈ 2.07 to 41 µM) | 2.52 to 50 (≈ 2.07 to 41 µM) | 2.52 to 50 (≈ 2.07 to 41 µM) | 2.52 to 50 (≈ 2.07 to 41 µM) | 2.52 to 50 (≈ 2.07 to 41 µM) | 2.52 to 50 (≈ 2.07 to 41 µM) | 1 to 10 (≈ 0.821 to 8.21 µM) | 1 to 10 (≈ 0.821 to 8.21 µM) | 1 to 10 (≈ 0.821 to 8.21 µM) | 1 to 10 (≈ 0.821 to 8.21 µM) | 1 to 10 (≈ 0.821 to 8.21 µM) |  | CCC(=O)C[C@@H](O)CC(C)C[C@H](NC(=O)[C@@H]1C[C@H](C)CN1C(=O)/C=C/[C@H](C)CC)C(=O)N[C@H](C(=O)NC(C)(C)C(=O)N[C@@H](CC(C)C)C(=O)N[C@@H](CC(C)C)C(=O)NC(C)(C)C(=O)NC(C)(C)C(=O)NCCC(=O)N[C@@H](C)CN(C)C)[C@H](O)C(C)C (stereo partly drawn) (X1-[Pro(4S-Me)][X2][Leu(3R-OH)][Aib]LL[Aib][Aib][βAla]-{NH((S)CH(Me)CH2NMe2)}) |
|  |  |  |  |  |  |  |  |  |  |  | 1 (≈ 1.85 µM) | COc1nc2ccc(Br)cc2cc1[C@H](c1ccccc1)[C@](O)(CCN(C)C)c1ccc(Cl)cc1 |
